Test results published in patent publication US20230339900A1, “CASEIN KINASE 1 DELTA MODULATORS” (Janssen Pharmaceutica NV, priority 2020, published 2023).

Experiments:
[1] = target: human recombinant GST cleaved CSNK1D (Homo sapiens (Human), UniProt P48730); test: Purified enzyme assay (ADP-Glo Kinase Assay); format: biochemical; details: 2 nM CSNK1D, peptide substrate 150 μM, ATP 20 μM, 45 minutes room temperature
Description: In this assay, CSNK1D phosphorylates a substrate peptide PLSRTL-pS-VASLPGL in the presence of ATP. […] This assay monitors CSNK1D kinase activity by measuring the amount of ADP produced in the assay. A substrate mix is prepared by diluting peptide substrate (final concentration 150 μM) with ATP (final concentration 20 μM) in assay buffer (50 mM Tris/HCl pH 7.4+10 mM MgCl2+1 mM DTT+0.1% BSA). The substrate mix is added to each well of a low volume, 384-well, white opaque plate. Test compounds were diluted in HBSS and added in a dose-response to the plate. To start the reaction, 2 nM of constitutively active human recombinant GST cleaved CSNK1D (University of Dundee, clone DU 19064, stored at 0.28 mg/mL in 50 mM Tris/HCl pH 7.5, 150 mM NaCl, 270 mM Sucrose, 0.1 mM EGTA, 0.1% 2-mercaptoethanol, 0.02% Brij-35.1 mM benzamidine, 0.2 mM PMSF) was added to each well and the plate centrifuged for 5 minutes at 1500 rpm. The total volume of each reaction is 5 ul (2 μL of substrate mix, 1 μL of diluted compounds, and 2 μL of human recombinant CSNK1D). The plates are incubated for 45 minutes at room temperature.
ADP was quantified using the ADP-Glo™ Kinase Assay. ADP-Glo Reagent (5 μL) was added to each well. After a 1 hour incubation at room temperature, Kinase Detection Reagent (10 μL) was added to each well and incubated for 30 minutes. Luminescence was measured on the Perkin Elmer Wallac EnVision 2104 Multi-label Reader. The raw data from the Envision is used to calculate percent activity.

[2] = target: human CSNK1D tagged with nanoluciferase (Homo sapiens (Human), UniProt P48730); test: Whole Cell nBRET CSNK1D Binding Assay; details: living CHO cells stably expressing human CSNK1D-nanoluciferase; NanoBret tracer 130 nM; 2 hours 37° C.; read-out: CSNK1D BRET IC50
Description: This cellular binding assay uses a bioluminescence resonance energy transfer to measure human CSNK1D binding activity in living Chinese Hamster Ovary (CHO) cells that are stably expressing human CSNK1D tagged with nanoluciferase. The cells were grown to confluency in growth media (DMEM:F12, 50 u/mLPen/Strep, […] glutamine, and 0.6 mg/mL G418) in 10 cm^2 dishes. Cells were seeded onto white, opaque 384-well plates (Corning, cat #3704) at a density of 8,000 cells/well in serum-free OptiMEM and left to incubated overnight at 37° C., […]. The next day, test compounds were added in a dose response to the plate followed by a NanoBret tracer (130 nM). The plate is mixed on an orbital shaker for 30 seconds, then placed in a 37° C. incubator for 2 hours. NanoBret Nano-Glo Substrate solution (20 μL) is added to all wells and incubated for 3 minutes at room temperature. Donor (450 nm) and acceptor (630 nm) emissions are then measured within 10 minutes using a ClarioStar plate reader. The data is used to calculate millibret units, defined as (E630/E450)*1000. Bret emissions are then graphed against the log of compound concentrations and these graphs are used to determine the IC50 of each compound.

Chain of human CSNK1D tagged with nanoluciferase (P48730 whole entry): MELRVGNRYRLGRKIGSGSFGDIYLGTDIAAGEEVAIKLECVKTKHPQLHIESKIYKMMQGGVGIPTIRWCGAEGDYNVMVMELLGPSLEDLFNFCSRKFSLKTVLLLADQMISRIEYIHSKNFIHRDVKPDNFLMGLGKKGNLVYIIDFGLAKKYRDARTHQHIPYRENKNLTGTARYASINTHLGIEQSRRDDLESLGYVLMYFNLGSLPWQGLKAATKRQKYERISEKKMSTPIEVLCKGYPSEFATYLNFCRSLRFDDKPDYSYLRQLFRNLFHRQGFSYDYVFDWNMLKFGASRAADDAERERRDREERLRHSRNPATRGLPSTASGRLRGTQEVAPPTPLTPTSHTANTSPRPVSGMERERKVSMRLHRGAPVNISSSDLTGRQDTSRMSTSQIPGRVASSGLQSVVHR
Chain of human recombinant GST cleaved CSNK1D (P48730 whole entry): as above

Row | SMILES | AC50 [1] | IC50 [2]
1 | Fc1ccc(-c2nn(C3CCOC3)cc2-c2ccnc3[nH]ccc23)nc1 (racemic) [Example 74, (R/S)-4-[3-(5-Fluoro-2-pyridyl)-1-tetrahydrofuran-3-yl-pyrazol-4-yl]-1H-pyrrolo[2,3-b]pyridine] | 36 nM | 218 nM
2 | Cn1cc(-c2ccnc3[nH]c(C4(O)CCOC4)cc23)c(-c2ccc(F)cn2)n1 (racemic) [Example 96, (R/S)-3-(4-(3-(5-Fluoropyridin-2-yl)-1-methyl-1H-pyrazol-4-yl)-1H-pyrrolo[2,3-b]pyridin-2-yl)tetrahydrofuran-3-ol] | 4 nM | 148 nM
3 | Cn1cc(-c2ccnc3[nH]cc(CC4CCOC4)c23)c(-c2ccc(F)cn2)n1 (racemic) [Example 97, (R/S)-4-[3-(5-Fluoro-2-pyridyl)-1-methyl-pyrazol-4-yl]-3-(tetrahydrofuran-3-ylmethyl)-1H-pyrrolo[2,3-b]pyridine] | 384 nM | > 10000 nM
4 | CCC(=O)Nc1cc(-c2cn(C)nc2-c2ccc(F)cn2)ccn1 [Example 1, N-(4-(3-(5-Fluoropyridin-2-yl)-1-methyl-1H-pyrazol-4-yl)pyridin-2-yl)propionamide] | 5 nM | 107 nM
5 | Cn1cc(-c2ccnc3c2CCC3)c(-c2ccc(F)cn2)n1 [Example 2, 4-(3-(5-Fluoropyridin-2-yl)-1-methyl-1H-pyrazol-4-yl)-6,7-dihydro-5H-cyclopenta[b]pyridine] | 37 nM | 955 nM
6 | Cn1cc(-c2ccnc3c2CC(=O)N3)c(-c2ccc(F)cn2)n1 [Example 3, 4-(3-(5-Fluoropyridin-2-yl)-1-methyl-1H-pyrazol-4-yl)-1,3-dihydro-2H-pyrrolo[2,3-b]pyridin-2-one] | 58 nM | 1500 nM
7 | Cn1cc(-c2ccnc3cc[nH]c23)c(-c2ccc(F)cn2)n1 [Example 4, 7-(3-(5-Fluoropyridin-2-yl)-1-methyl-1H-pyrazol-4-yl)-1H-pyrrolo[3,2-b]pyridine] | 118 nM | 2360 nM
8 | Cn1cc(-c2ccnc3cn[nH]c23)c(-c2ccc(F)cn2)n1 [Example 5, 7-(3-(5-Fluoropyridin-2-yl)-1-methyl-1H-pyrazol-4-yl)-1H-pyrazolo[4,3-b]pyridine] | 15 nM | 460 nM
9 | Cn1cc(-c2ccnc3[nH]ccc23)c(-c2cnco2)n1 [Example 6, 5-(1-Methyl-4-(1H-pyrrolo[2,3-b]pyridin-4-yl)-1H-pyrazol-3-yl)oxazole] | 41 nM | 1420 nM
10 | Cn1cc(-c2ccnc3[nH]ccc23)c(-c2ncco2)n1 [Example 7, 2-(1-Methyl-4-(1H-pyrrolo[2,3-b]pyridin-4-yl)-1H-pyrazol-3-yl)oxazole] | 38 nM | 128 nM
11 | Cc1cc(-c2cn(C)nc2-c2ncco2)c2cn[nH]c2n1 [Example 8, 2-(1-Methyl-4-(6-methyl-1H-pyrazolo[3,4-b]pyridin-4-yl)-1H-pyrazol-3-yl)oxazole] | 783 nM | > 10000 nM
12 | Cn1cnc(-c2nn(C)cc2-c2ccnc3[nH]ccc23)c1 [Example 9, 4-(1-Methyl-3-(1-methyl-1H-imidazol-4-yl)-1H-pyrazol-4-yl)-1H-pyrrolo[2,3-b]pyridine] | 16 nM | 568 nM
13 | Cn1cc(-c2ccnc3[nH]ccc23)c(-c2cncn2C)n1 [Example 10, 4-(1-Methyl-3-(1-methyl-1H-imidazol-5-yl)-1H-pyrazol-4-yl)-1H-pyrrolo[2,3-b]pyridine] | 2280 nM | > 10000 nM
14 | Cn1cc(-c2ccnc3[nH]ccc23)c(-c2nccn2C)n1 [Example 11, 4-(1-Methyl-3-(1-methyl-1H-imidazol-2-yl)-1H-pyrazol-4-yl)-1H-pyrrolo[2,3-b]pyridine] | 111 nM | 4360 nM
15 | Cn1cc(-c2ccnc3[nH]ccc23)c(-c2ccns2)n1 [Example 12, 5-(1-Methyl-4-(1H-pyrrolo[2,3-b]pyridin-4-yl)-1H-pyrazol-3-yl)isothiazole] | 50 nM | 678 nM
16 | Cn1cc(-c2ccnc3[nH]ccc23)c(-c2cscn2)n1 [Example 13, 4-(1-Methyl-4-(1H-pyrrolo[2,3-b]pyridin-4-yl)-1H-pyrazol-3-yl)thiazole] | 28 nM | 626 nM

Row | SMILES | AC50 [1] | IC50 [2]
17 | Cn1cc(-c2ccnc3[nH]ccc23)c(-c2cncs2)n1 [Example 14, 5-(1-Methyl-4-(1H-pyrrolo[2,3-b]pyridin-4-yl)-1H-pyrazol-3-yl)thiazole] | 83 nM | 3130 nM
18 | Cn1cc(-c2ccnc3[nH]ccc23)c(-c2ccsn2)n1 [Example 15, 3-(1-Methyl-4-(1H-pyrrolo[2,3-b]pyridin-4-yl)-1H-pyrazol-3-yl)isothiazole] | 7 nM | 181 nM
19 | Cn1cc(-c2ccnc3[nH]ccc23)c(-c2nccs2)n1 [Example 16, 2-(1-Methyl-4-(1H-pyrrolo[2,3-b]pyridin-4-yl)-1H-pyrazol-3-yl)thiazole] | 15 nM | 319 nM
20 | Cn1cc(-c2ccnc3[nH]ccc23)c(-c2ccncc2)n1 [Example 17, 4-[1-Methyl-3-(4-pyridyl)pyrazol-4-yl]-1H-pyrrolo[2,3-b]pyridine] | 101 nM | 1640 nM
21 | Cn1cc(-c2ccnc3[nH]ccc23)c(-c2ccncc2F)n1 [Example 18, 4-[3-(3-Fluoro-4-pyridyl)-1-methyl-pyrazol-4-yl]-1H-pyrrolo[2,3-b]pyridine] | 26 nM | 1770 nM
22 | Cn1cc(-c2ccnc3[nH]ncc23)c(-c2ccncc2F)n1 [Example 19, 4-[3-(3-Fluoro-4-pyridyl)-1-methyl-pyrazol-4-yl]-1H-pyrazolo[3,4-b]pyridine] | 92 nM | 797 nM
23 | Cn1cc(-c2ccnc3[nH]ccc23)c(-c2cncc(F)c2)n1 [Example 21, 4-[3-(5-Fluoro-3-pyridyl)-1-methyl-pyrazol-4-yl]-1H-pyrrolo[2,3-b]pyridine] | 14 nM | 356 nM
24 | Cc1ccc(-c2nn(C)cc2-c2ccnc3[nH]ccc23)cn1 [Example 22, 4-[1-Methyl-3-(6-methyl-3-pyridyl)pyrazol-4-yl]-1H-pyrrolo[2,3-b]pyridine] | 44 nM | 1170 nM
25 | Cn1cc(-c2ccnc3[nH]ccc23)c(-c2ccc(OC(F)F)nc2)n1 [Example 23, 4-[3-[6-(Difluoromethoxy)-3-pyridyl]-1-methyl-pyrazol-4-yl]-1H-pyrrolo[2,3-b]pyridine] | 551 nM | > 10000 nM
26 | Cn1cc(-c2ccnc3[nH]ccc23)c(-c2ccc(Cl)cn2)n1 [Example 24, 4-[3-(5-Chloro-2-pyridyl)-1-methyl-pyrazol-4-yl]-1H-pyrrolo[2,3-b]pyridine] | 34 nM | 251 nM
27 | Cn1cc(-c2ccnc3[nH]ncc23)c(-c2ccc(Cl)cn2)n1 [Example 25, 4-(3-(5-Chloropyridin-2-yl)-1-methyl-1H-pyrazol-4-yl)-1H-pyrazolo[3,4-b]pyridine] | 693 nM | 306 nM
28 | Cc1cc(-c2cn(C)nc2-c2ccc(Cl)cn2)c2cn[nH]c2n1 [Example 26, 4-(3-(5-Chloropyridin-2-yl)-1-methyl-1H-pyrazol-4-yl)-6-methyl-1H-pyrazolo[3,4-b]pyridine] | 58 nM | 2090 nM
29 | Cn1cc(-c2ccnc3[nH]ccc23)c(-c2cc(F)ccn2)n1 [Example 27, 4-[3-(4-Fluoro-2-pyridyl)-1-methyl-pyrazol-4-yl]-1H-pyrrolo[2,3-b]pyridine] | 4 nM | 178 nM
30 | Cn1cc(-c2ccnc3[nH]ccc23)c(-c2ccc(F)nc2)n1 [Example 28, 4-[3-(6-Fluoro-3-pyridyl)-1-methyl-pyrazol-4-yl]-1H-pyrrolo[2,3-b]pyridine] | 8 nM | 165 nM
31 | Cn1cc(-c2ccnc3[nH]c(C4COC4)cc23)c(-c2ccc(F)cn2)n1 [Example 92, 4-(3-(5-Fluoropyridin-2-yl)-1-methyl-1H-pyrazol-4-yl)-2-(oxetan-3-yl)-1H-pyrrolo[2,3-b]pyridine] | – | 184 nM
